We go through five compounds from article PMC11887051, “Discovery of ONO-2920632 (VU6011887): A Highly Selective and CNS Penetrant TREK-2 (TWIK-Related K+ Channel 2) Preferring Activator In Vivo Tool Compound” (ACS Chemical Neuroscience, 2025).

As usually defined, the EC50 is the concentration that produces a half-maximal response. Lower therefore signals an effect from little substance. Broadly, the Emax is the size of the effect at its maximum, as opposed to the concentration needed. Usually inhibition stands for the change of the read-out against control, counted positive when it falls. Lower therefore signals little suppression. The term % Inhibition denotes the change of the read-out against control, counted positive when it falls. Read a high % Inhibition as strong suppression.

Values joined by “and” are separate entries in the source; they are usually repeats but may differ in a detail not shown here. Identical values can stand only once. “Also recorded” adds a separate entry of the source. Like-named read-outs stand apart in the source and are kept apart here.

One series is described as follows: rat PK study. Type of series: in vivo. As to conditions: plasma; for clearance: read-out: rat CLp; for Vd: read-out: rat Vss; for half-life: read-out: rat t1/2 (converted).
Series [1] is described as follows: mouse plasma protein binding. Type of series: in vitro ADME. As to conditions: pH 7.4, read-out: mouse plasma fu. The protocol: In vitro Plasma protein binding and Brain homogenate binding: Determination of fraction unbound (f u) in plasma was conducted in vitro via equilibrium dialysis using HTDialysis (HTD) membrane plates. The top half of the plate was filled with 100 uL of Dubelco’s Phosphate Buffered Saline, pH 7.4 (DPBS). Compounds were diluted into plasma from each species (5 µM final concentration), which was aliquoted in triplicate to the ‘bottom half’ of the prepared HTD plate wells. The HTD plate was sealed and incubated for 6 hours at 37 °C. Following incubation, each well (both top and bottom halves) were transferred (20 µL) to the corresponding wells of a 96-shallow-well (V-bottom) plate. The daughter plates were then matrix-matched (DPBS side wells received equal volume of plasma, and plasma side wells received equal volume of DPBS), and extraction solution (120 µL; acetonitrile containing 50 nM carbamazepine as IS) was added to all wells of both daughter plates to precipitate protein and extract test article. The plates were then sealed and centrifuged (3500 rcf) for 10 minutes at ambient temperature. Supernatant (60 µL) from each well of the daughter plates was then transferred to the corresponding wells of new daughter plates (96-shallow-well, V bottom) containing water (Milli-Q, 60 µL/well), and the plates were sealed in preparation for LC-MS/MS analysis (see LC-MS/MS analysis method below).
The unbound fraction (f u) was calculated following the equation below, and mean values for each species were calculated from 3 replicates. […]
Fraction unbound for both plasma and brain samples was determined using Equation 4.
Equation 4 Determination of fraction unbound in plasma. […]

For another series, the target named is T1, mouse TREK-2 (Mus musculus, UniProt Q8BUW1).
T1 sequence (Q8BUW1 1-535): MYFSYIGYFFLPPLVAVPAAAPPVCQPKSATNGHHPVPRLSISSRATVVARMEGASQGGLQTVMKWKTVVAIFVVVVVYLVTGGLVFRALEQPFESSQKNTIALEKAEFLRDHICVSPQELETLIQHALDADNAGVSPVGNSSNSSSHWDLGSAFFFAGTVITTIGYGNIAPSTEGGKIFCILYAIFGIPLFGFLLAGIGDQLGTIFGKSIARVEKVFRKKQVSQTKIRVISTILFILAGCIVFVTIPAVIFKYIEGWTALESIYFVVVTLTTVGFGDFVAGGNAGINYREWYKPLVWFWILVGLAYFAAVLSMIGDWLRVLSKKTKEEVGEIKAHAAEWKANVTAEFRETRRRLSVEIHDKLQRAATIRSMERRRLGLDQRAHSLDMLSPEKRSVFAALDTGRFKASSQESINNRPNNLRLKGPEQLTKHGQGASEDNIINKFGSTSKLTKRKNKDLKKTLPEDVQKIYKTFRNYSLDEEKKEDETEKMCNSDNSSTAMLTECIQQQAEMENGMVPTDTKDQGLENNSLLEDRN
Briefly: mouse TREK-2 MPC assay. Format: cell-based. As to conditions: for EC50 / Emax: mouse, manual patch clamp; for TREK-2 preference (mouse MPC): TREK-2 over TREK-1, mouse MPC.

The test system of a further series is TASK-2. Briefly: human 86Rb flux K2P selectivity panel. Type of series: cell-based. As to conditions: 86Rb flux K2P panel.
The next series addresses Histamine H1 (Homo sapiens, UniProt P35367). As to the kind of experiment: Eurofins Lead Profiling radioligand binding. As to conditions: title: 30 μM.
The next series deals with T2, TREK-1 (Homo sapiens, UniProt O95069).
T2 sequence (O95069 1-426): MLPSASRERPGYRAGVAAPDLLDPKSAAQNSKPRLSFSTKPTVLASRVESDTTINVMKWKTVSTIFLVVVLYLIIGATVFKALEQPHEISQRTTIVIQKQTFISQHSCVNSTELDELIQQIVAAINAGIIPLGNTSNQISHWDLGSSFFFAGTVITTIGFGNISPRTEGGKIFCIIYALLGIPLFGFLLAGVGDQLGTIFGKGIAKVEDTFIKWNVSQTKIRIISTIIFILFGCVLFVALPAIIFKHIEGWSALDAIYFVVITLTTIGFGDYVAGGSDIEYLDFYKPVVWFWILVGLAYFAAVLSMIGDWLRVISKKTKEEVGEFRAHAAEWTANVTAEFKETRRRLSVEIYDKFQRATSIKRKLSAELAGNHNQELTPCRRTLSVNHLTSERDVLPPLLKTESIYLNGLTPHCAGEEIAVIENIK
Briefly: human 86Rb flux K2P selectivity panel. Type of series: cell-based. As to conditions: data is not shown.

A further series concerns TRAAK. Briefly: human 86Rb flux K2P selectivity panel. Type of series: cell-based. As to conditions: 86Rb flux K2P panel.
Another series has as its system TASK-1. As to the kind of experiment: human 86Rb flux K2P selectivity panel. Format: cell-based. As to conditions: 86Rb flux K2P panel.
The test system of another series is TASK-3. Briefly: human 86Rb flux K2P selectivity panel. Type of series: cell-based. As to conditions: 86Rb flux K2P panel.
For another series, the target named is T3, TRESK (Homo sapiens, UniProt Q7Z418).
T3 sequence (Q7Z418 1-384): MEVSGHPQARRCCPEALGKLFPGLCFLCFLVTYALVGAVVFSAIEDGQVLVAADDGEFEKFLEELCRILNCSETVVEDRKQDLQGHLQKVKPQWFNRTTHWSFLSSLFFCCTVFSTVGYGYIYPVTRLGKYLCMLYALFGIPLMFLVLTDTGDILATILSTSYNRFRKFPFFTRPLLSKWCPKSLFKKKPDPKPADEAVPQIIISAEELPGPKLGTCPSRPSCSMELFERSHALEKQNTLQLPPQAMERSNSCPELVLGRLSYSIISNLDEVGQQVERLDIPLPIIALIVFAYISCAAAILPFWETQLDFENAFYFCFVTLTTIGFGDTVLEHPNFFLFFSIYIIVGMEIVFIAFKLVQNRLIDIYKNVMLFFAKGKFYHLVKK
Briefly: human 86Rb flux K2P selectivity panel. Format: cell-based. As to conditions: 86Rb flux K2P panel; for activity at TRESK: data is not shown.

Another series concerns Potassium Channel [KATP]. As to the kind of experiment: Eurofins Lead Profiling radioligand binding. Also on record: species or system Hamster. As to conditions: title: 30 μM.
A further series concerns the target Dopamine D1 (Homo sapiens, UniProt P21728). Briefly: Eurofins Lead Profiling radioligand binding. As to conditions: title: 30 μM.
A further series deals with TWIK-2. Briefly: human 86Rb flux K2P selectivity panel. Format: cell-based. As to conditions: 86Rb flux K2P panel.
Where [2] appears, read: Sprague-Dawley, intravenous, rat cassette PK study.

Chain of Histamine H1 (P35367 whole entry): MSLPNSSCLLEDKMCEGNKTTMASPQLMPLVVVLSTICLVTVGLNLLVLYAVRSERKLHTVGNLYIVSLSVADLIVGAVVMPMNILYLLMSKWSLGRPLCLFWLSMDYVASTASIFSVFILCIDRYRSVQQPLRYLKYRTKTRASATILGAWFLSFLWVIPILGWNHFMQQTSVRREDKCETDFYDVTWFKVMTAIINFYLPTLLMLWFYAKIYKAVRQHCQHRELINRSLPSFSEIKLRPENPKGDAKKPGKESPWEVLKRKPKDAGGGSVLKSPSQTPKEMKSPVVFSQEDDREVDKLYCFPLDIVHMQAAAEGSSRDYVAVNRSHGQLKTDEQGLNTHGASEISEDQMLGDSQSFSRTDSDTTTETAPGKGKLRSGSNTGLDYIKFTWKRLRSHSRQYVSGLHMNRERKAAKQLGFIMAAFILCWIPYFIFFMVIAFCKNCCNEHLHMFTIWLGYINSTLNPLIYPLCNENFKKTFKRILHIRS
Chain of Dopamine D1 (P21728 whole entry): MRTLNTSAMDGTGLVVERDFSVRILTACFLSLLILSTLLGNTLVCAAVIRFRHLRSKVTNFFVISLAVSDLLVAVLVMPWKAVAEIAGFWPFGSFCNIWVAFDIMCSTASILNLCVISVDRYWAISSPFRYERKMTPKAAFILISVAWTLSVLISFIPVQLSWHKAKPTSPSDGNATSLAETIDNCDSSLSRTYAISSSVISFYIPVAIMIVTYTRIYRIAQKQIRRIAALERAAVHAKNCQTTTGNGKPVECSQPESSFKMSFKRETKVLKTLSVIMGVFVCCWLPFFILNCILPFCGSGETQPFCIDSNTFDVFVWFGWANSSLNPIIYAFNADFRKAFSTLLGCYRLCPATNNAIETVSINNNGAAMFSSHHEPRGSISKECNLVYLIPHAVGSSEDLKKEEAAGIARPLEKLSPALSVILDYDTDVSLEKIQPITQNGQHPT

On to `CS(=O)(=O)Nc1ccc(C(=O)NCc2ccc(Cl)cc2Cl)cc1` [Compound 13], for which, in “rat PK study” (rat PK profile), the clearance is 3.5 mL/min/kg, the Vd came out at 0.787 L/kg and the half-life was 3 h.
Regarding `O=C(NCc1ccc(Br)cc1Cl)c1ccc(-c2ncn[nH]2)cc1` [Compound 14a], the fraction unbound at 6 h, 5 µM in series [1] came out at 0.022. In the series “rat PK study” (setting [2]), the clearance came out at 20.5 mL/min/kg, the Vd was found to be 1.5 L/kg and the half-life was 1.1 h. For the same compound, on mouse TREK-2, the EC50 was determined as 610 nM and the maximal response (Emax) is 97%.
Consider `Cc1cc(OC(F)(F)F)ccc1CNC(=O)c1ccc2ncnn2c1` [Compound 19a], for which, in series [1], the fraction unbound at 6 h, 5 µM worked out at 0.1. Further, on mouse TREK-2, the “TREK-2 preference (mouse MPC)” value came to 33 fold, the response was half-maximal at 150 nM (EC50) and the Emax was found to be 105%.
On to `O=C(NCc1ccc(OC(F)(F)F)cc1F)c1ccc2ncnn2c1` [Compound 19b], for which the “selectivity against TASK-2 over TREK-2” value in the series on TASK-2 was above 150 fold. This compound registered an inhibition on Histamine H1 of 8%. Also, the “activity at TREK-1 in 86Rb flux panel” value at TREK-1 is listed as “micromolar activity”. Further, the “selectivity against TRAAK over TREK-2” value with TRAAK was above 150 fold. Besides, the “selectivity against TASK-1 over TREK-2” value in the series with TASK-1 is above 150 fold. Also, in [1], the fraction unbound at 6 h, 5 µM turned out to be 0.24. Besides, the “selectivity against TASK-3 over TREK-2” value in the series on TASK-3 was above 150 fold. Moreover, at TRESK, the “selectivity against TRESK over TREK-2” value is given as 31 fold and the “activity at TRESK” value is on record as “micromolar inhibitor activity”. Besides, the “% Inhibition at 10 µM” value with Potassium Channel [KATP] turned out to be 13%. The compound also displayed an inhibition at Dopamine D1 of 22%. Besides, on mouse TREK-2, the “TREK-2 preference (mouse MPC)” value is listed as 4.7 fold, the EC50 worked out at 570 nM and the maximum response (Emax) was found to be 105%. In addition, the “selectivity against TWIK-2 over TREK-2” value in the series with TWIK-2 is recorded as above 150 fold.
In the case of `O=C(NCc1ccc(OC(F)(F)F)cc1Cl)c1ccc2nncn2c1` [Compound 20], the “selectivity against TASK-2 over TREK-1/2” value with TASK-2 was > 91 fold and > 85 fold. Moreover, in the series on TRAAK, the “selectivity against TRAAK over TREK-1” value was 85 fold and > 85 fold. For the same compound, the “selectivity against TASK-1 over TREK-1/2” value in the series on TASK-1 was > 91 fold and > 85 fold. The “selectivity against TASK-3 over TREK-1/2” value with TASK-3 was > 91 fold and > 85 fold. For the same compound, on TRESK, the “activity at TRESK” value is recorded as “micromolar inhibitor activity; also recorded: micromolar inhibitory activity”. Further, the “selectivity against TWIK-2 over TREK-1/2” value in the series on TWIK-2 is > 91 fold and > 85 fold.
